Test results published in patent US20230107216A1, “PANTETHEINE DERIVATIVES AND USES THEREOF” (Comet Therapeutics, Inc., priority 2018, published 2023).
Like-named read-outs stand apart in the source and are kept apart here.

How the values were obtained:
[1] = tested on: Subnormal activation of pyruvate dehydrogenase complex (PDH) primary fibroblasts GM01503; assay: NADP+/NADPH (NADP/NADPH-Glo), PDH fibroblasts GM01503; format: cell-based; settings: Homo sapiens, Fibroblast, PDH GM01503 P10, assay condition A (10 mM glucose, 2 mM L-glutamine, 1 mM pyruvate, 10% FBS), 24h, read-out: Increase in Total NADP+ + NADPH
Procedure: (§1) Primary adherent fibroblasts were cultured in minimum essential medium (MEM) (Gibco, 25030081) supplemented with 2 mM L-Glutamine (Gibco, 25030081), 15% fetal bovine serum (FBS) (Gibco, 26400044) and 1% penicillin/streptomycin (Gibco, 5140122) at 37° C. and 5% CO2. Cells were collected for either passaging or experiment at ˜70-80% confluence. Cells were obtained by trypsinization and seeded in cell culture microplates either white plate (Thermo Fisher Scientific, 152028) for luminescent measurement or black plate (Thermo Fisher Scientific, 165305) for fluorescent based read out for different assays listed below. Cells were obtained by trypsinization and […] were seeded and allowed to adhere for 16-18 hours to have confluency around 70-80% in the cell well with culture media. After 24 hours prior to measurements (37° C., 5% CO2) media was changed to Dulbecco's Modified Eagle Medium (DMEM, Agilent Seahorse cat #103575-100) with the appropriate supplements as stated below.
(§2) Primary fibroblasts assayed were Propionic Acidemia (PA) (GM03590 Coriell Institute for Medical Research, Tsi 6337 Trans-Hit Bio), Methylmalonic Acidemia (MMA) (Tsi 5224 Trans-Hit Bio), Subnormal activation of pyruvate dehydrogenase complex (PDH) (GM01503 Coriell Institute for Medical Research), Very long-chain acyl-CoA dehydrogenase (VLCAD) (GM17475), Leigh Syndrome (LS) (GM03672, GM13411 Coriell Institute for Medical Research), Pyruvate Carboxylase Deficiency (PC) (GM00444 Coriell Institute for Medical Research). 10 μM of Compounds were added for 2 hours in PA, MMA lines and for 24h for the other fibroblast lines.
(§3) Assay was performed according to manufacturer instructions (NADP+/NADPH-Glo Assay Promega, G9082). Assay required a plate for total measurement of NADP+/NADPH and a plate for individual measurement of NADP+ or NADPH. For every assay a 12-point standard curve is prepared ranging from 400 nM to 0.625 nM. Media is removed and replaced with 50 μl of PBS for both assays.
(§4) For individual NADP+/NADPH measurements, 50 μl of 1% DTAB (Sigma, D5047) (cell lysis reagent) in 0.2N NaOH was added to the plates and 100 μl of lysate was split into two plates with 50 μl each from which ratio of NADP/NADPH can be calculated. 25 μl of 0.4N HCl were added to the NADP+ plates and both NADP+ and NADPH plates were heated at 60° C. for 15 minutes. The acid and heat treatment destroyed NADPH allowing individual NADP+ measurements while heating in basic conditions destroys NADP+ allowing individual NADPH measurement. After 15 minutes plates were allowed to come to room temperature and Trizma base (Sigma, T1699) was added to the NADP+ plates to neutralize the acid and HCl Trizma hydrochloride (Sigma, T2694) was added to the NADPH plates. The NADNADPH glo reagent was prepared by adding 125 μl of NAD cycling substrate, 125 μl of reductase, 125 μl of reductase substrate, 125 μl NAD cycling enzyme to a total of the 25 ml of NAD GLO reagent. 1:1 ratio of total volume of reagent was added to the individual NADP+, NADPH measurements (total 100 μl) and 50 μl were added for the total NAD/NADPH measurements. Luminescence was measured for 30-60 minutes within the linear range.
(§5) A total dead cell count was performed as described in Example 817 and only alive cells were used for analysis.

[2] = tested on: Leigh Syndrome (LS) primary fibroblasts GM03672; assay: NADP+/NADPH (NADP/NADPH-Glo), Leigh fibroblasts GM03672; format: cell-based; settings: Homo sapiens, Fibroblast, 24h, read-out: Increase in Total NADP+ + NADPH
Procedure: as §1, §2, §3, §4, §5

[3] = Leigh GM03672 P9, assay condition A (10 mM glucose, 2 mM L-glutamine, 1 mM pyruvate, 10% FBS)
[4] = Leigh GM03672 P8, assay condition B (1 mM glucose, 2 mM L-glutamine, 1 mM pyruvate, 10% FBS)

Compound	activation at 10 µM [1]	activation at 10 µM [2, 3]	activation at 10 µM [2, 4]
CC(=O)OCC(C)(C)[C@@H](OC(C)=O)C(=O)NCCC(=O)NCCSC(C)=O [Compound 1264, (1R)-3-(acetyloxy)-1-[(2-[[2-(acetylsulfanyl)ethyl]carbamoyl]ethyl)carbamoyl]-2,2-dimethylpropyl acetate]	≥ 10%	–	–
COC(=O)CCC(=O)SCCNC(=O)CCNC(=O)[C@H](OC(=O)CN)C(C)(C)CO [Compound 1294, methyl 4-[(2-[3-[(2R)-2-[(2-aminoacetyl)oxy]-4-hydroxy-3,3-dimethylbutanamido]propanamido]ethyl)sulfanyl]-4-oxobutanoate]	–	≥ 10%	–
CCC(=O)CC(=O)SCCNC(=O)CCNC(=O)[C@H](O)C(C)(C)CO [Compound 382, (2R)-2,4-dihydroxy-3,3-dimethyl-N-[2-([2-[(3-oxopentanoyl)sulfanyl]ethyl]carbamoyl)ethyl]butanamide]	≥ 10%	–	–
COC(=O)CCC(=O)SCCNC(=O)CCNC(=O)[C@H](OC(=O)CNC(C)=O)C(C)(C)CO [Compound 1298, methyl 4-[(2-[3-[(2R)-2-[(2-acetamidoacetyl)oxy]-4-hydroxy-3,3-dimethylbutanamido]propanamido]ethyl)sulfanyl]-4-oxobutanoate]	–	≥ 10%	–
CC(=O)SCCNC(=O)CCNC(=O)[C@H](O)C(C)(C)COC(=O)[C@H](C)N [Compound 502, (3R)-3-[(2-[[2-(acetylsulfanyl)ethyl]carbamoyl]ethyl)carbamoyl]-3-hydroxy-2,2-dimethylpropyl (2S)-2-aminopropanoate]	≥ 10%	–	–
CC(C)(CO)[C@@H](O)C(=O)NCCC(=O)NCCSC(=O)CC(=O)CCC(=O)O [Compound 2, 6-[(2-[3-[(2R)-2,4-dihydroxy-3,3-dimethylbutanamido]propanamido]ethyl)sulfanyl]-4,6-dioxohexanoic acid]	–	–	≥ 10%
C[C@H](O)CC(=O)CC(=O)SCCNC(=O)CCNC(=O)[C@H](O)C(C)(C)CO [Compound 1306, (2R)-2,4-dihydroxy-N-[2-[(2-[[(5S)-5-hydroxy-3-oxohexanoyl]sulfanyl]ethyl)carbamoyl]ethyl]-3,3-dimethylbutanamide]	≥ 10%	–	≥ 10%
C[C@@H](O)CC(=O)CC(=O)SCCNC(=O)CCNC(=O)[C@H](O)C(C)(C)CO [Compound 42, (2R)-2,4-dihydroxy-N-[2-[(2-[[(5R)-5-hydroxy-3-oxohexanoyl]sulfanyl]ethyl)carbamoyl]ethyl]-3,3-dimethylbutanamide]	≥ 10%	–	–
C[C@@H](O)CC(=O)SCCNC(=O)CCNC(=O)[C@H](O)C(C)(C)CO [Compound 38, S-2-{3-[(R)-2,4-dihydroxy-3,3-dimethylbutyrylamino]propionylamino} ethyl (R)-3-hydroxybutanethioate]	≥ 10%	–	–
CC(O)C(C(=O)SCCNC(=O)CCNC(=O)[C@H](O)C(C)(C)CO)C(C)O (stereo partly drawn) [Compound 1285, (2R)-2,4-dihydroxy-N-[2-[(2-[[3-hydroxy-2-(1-hydroxyethyl)butanoyl]sulfanyl]ethyl)carbamoyl]ethyl]-3,3-dimethylbutanamide]	≥ 10%	–	–
COC(=O)CC(C(C)=O)C(=O)SCCNC(=O)CCNC(=O)[C@H](O)C(C)(C)CO (stereo partly shown) [Compound 410]	≥ 10%	–	≥ 10%
CC(C)(CO)[C@@H](O)C(=O)NCCC(=O)NCCSC(=O)CCCO [Compound 1304, (2R)-2,4-dihydroxy-N-[2-([2-[(4-hydroxybutanoyl)sulfanyl]ethyl]carbamoyl)ethyl]-3,3-dimethylbutanamide]	≥ 10%	–	–
CC(=O)OCC(C)(C)[C@@H](O)C(=O)NCCC(=O)NCCSC(=O)CC(=O)CCC(=O)O [Compound 140, 6-[(2-[3-[(2R)-4-(acetyloxy)-2-hydroxy-3,3-dimethylbutanamido]propanamido]ethyl)sulfanyl]-4,6-dioxohexanoic acid]	≥ 10%	–	≥ 10%
